Drawing on US20250179000A1 (Sanford Burnham Prebys Medical Discovery Institute, priority 2021, published 2025), this text covers EC50 for 24 compounds.

In general, EC50 refers to the concentration that produces a half-maximal response.

Common to all, as to format: cell-based
Assay [1] deals with T1, Rat mGlu3 (Rattus norvegicus, UniProt P31422).
T1 construct: expressed in transfected cells; host or cells: HEK-293 co-expressing GIRK channels
As to the kind of experiment: mGlu receptor in vitro assay (thallium flux through GIRK channels / calcium assay), rat mGlu3. The settings on record: PAM potency with EC20 glutamate. The essentials:
(§1)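 HEK-293 cells co-expressing rat mGlu2 or mGlu3 and GIRK, dye-loaded with FluoZin2-AM, compound added about 2.5 min before thallium buffer with EC20 glutamate; potency from the 5-15 s fluorescence slope, 10-point 4-parameter fit. Calcium assay at mGlu3 used TREx293 mGlu3 Gα15 cells induced with tetracycline 20 ng/mL for 20 h.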

Assay [2] deals with Human mGlu2 (Homo sapiens, UniProt Q14416). Kind of assay: mGlu receptor in vitro assay, human mGlu2.
Human mGlu2, sequence (Q14416 19-872): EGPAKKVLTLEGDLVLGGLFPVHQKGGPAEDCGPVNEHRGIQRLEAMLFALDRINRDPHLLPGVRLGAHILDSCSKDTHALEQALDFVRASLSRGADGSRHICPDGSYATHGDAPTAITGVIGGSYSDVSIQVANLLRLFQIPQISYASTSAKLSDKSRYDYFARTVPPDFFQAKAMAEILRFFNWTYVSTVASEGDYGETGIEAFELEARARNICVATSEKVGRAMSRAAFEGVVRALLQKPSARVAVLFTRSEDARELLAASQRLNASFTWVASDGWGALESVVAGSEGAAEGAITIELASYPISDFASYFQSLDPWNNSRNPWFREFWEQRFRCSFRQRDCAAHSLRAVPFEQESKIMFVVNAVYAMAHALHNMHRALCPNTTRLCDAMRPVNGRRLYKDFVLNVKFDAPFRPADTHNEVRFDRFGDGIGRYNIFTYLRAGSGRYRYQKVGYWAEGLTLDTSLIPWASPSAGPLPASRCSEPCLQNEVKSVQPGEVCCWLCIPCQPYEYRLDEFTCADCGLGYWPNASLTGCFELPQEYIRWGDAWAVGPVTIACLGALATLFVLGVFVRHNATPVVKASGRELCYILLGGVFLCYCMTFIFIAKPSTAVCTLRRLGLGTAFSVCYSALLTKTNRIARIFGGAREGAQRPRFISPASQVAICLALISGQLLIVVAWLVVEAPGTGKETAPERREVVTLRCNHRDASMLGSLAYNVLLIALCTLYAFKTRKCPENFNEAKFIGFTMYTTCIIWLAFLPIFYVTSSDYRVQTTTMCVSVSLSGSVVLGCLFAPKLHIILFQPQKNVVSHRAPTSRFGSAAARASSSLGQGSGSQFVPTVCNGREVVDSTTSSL
In assay [3] the target is T2, Rat mGlu2 (Rattus norvegicus, UniProt P31421).
T2 construct: expressed in transfected cells; host or cells: HEK-293 co-expressing GIRK channels
T2 sequence (P31421 19-872): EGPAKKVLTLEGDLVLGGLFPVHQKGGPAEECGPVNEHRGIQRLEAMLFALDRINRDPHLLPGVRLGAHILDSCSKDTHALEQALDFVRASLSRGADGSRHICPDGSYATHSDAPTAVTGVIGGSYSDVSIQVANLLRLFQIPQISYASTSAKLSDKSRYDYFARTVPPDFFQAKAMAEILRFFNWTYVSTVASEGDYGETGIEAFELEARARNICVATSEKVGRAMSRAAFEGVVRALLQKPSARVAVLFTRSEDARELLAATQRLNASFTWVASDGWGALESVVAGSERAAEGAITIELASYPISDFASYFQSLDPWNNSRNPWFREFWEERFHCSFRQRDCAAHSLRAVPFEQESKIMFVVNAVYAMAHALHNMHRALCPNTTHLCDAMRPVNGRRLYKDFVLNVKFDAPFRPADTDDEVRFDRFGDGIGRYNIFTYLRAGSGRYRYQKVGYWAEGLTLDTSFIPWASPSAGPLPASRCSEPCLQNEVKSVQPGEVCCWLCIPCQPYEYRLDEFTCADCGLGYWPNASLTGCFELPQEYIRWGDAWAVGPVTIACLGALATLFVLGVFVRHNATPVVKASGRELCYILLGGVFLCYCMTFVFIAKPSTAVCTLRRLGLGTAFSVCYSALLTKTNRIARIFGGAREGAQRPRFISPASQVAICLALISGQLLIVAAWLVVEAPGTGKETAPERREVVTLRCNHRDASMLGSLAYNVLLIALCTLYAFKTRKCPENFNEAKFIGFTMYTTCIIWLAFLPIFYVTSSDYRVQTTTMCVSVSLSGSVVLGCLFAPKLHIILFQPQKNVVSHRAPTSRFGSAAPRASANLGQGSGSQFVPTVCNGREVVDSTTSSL
Kind of assay: mGlu receptor in vitro assay, thallium flux through GIRK channels, rat mGlu2. The settings on record: PAM potency with EC20 glutamate. The essentials: as §1

Assay [4] deals with Human mGlu3 (Homo sapiens, UniProt Q14832). Kind of assay: mGlu receptor in vitro assay, human mGlu3.
Human mGlu3, sequence (Q14832 23-879): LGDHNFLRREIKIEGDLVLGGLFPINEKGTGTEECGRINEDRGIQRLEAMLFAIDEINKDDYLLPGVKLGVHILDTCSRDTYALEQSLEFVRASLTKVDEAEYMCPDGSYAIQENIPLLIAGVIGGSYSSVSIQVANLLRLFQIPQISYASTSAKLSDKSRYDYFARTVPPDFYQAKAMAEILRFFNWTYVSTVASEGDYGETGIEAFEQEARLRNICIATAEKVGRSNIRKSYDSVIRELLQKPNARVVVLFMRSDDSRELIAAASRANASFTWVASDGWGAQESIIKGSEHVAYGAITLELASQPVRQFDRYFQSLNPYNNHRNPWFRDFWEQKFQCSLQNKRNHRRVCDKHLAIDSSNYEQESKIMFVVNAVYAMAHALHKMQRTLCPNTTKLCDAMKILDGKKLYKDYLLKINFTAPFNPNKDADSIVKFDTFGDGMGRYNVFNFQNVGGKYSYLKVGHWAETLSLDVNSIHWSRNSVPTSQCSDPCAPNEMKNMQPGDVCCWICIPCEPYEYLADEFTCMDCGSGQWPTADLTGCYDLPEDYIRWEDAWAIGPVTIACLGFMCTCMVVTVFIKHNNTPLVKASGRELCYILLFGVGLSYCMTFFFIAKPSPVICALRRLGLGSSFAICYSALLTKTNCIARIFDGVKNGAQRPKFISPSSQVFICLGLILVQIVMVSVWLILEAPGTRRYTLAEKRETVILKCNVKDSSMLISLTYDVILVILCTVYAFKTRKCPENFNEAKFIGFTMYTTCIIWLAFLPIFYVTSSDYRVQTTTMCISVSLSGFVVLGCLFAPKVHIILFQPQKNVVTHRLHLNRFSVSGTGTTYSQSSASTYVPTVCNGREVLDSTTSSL

T1 sequence (P31422 23-879): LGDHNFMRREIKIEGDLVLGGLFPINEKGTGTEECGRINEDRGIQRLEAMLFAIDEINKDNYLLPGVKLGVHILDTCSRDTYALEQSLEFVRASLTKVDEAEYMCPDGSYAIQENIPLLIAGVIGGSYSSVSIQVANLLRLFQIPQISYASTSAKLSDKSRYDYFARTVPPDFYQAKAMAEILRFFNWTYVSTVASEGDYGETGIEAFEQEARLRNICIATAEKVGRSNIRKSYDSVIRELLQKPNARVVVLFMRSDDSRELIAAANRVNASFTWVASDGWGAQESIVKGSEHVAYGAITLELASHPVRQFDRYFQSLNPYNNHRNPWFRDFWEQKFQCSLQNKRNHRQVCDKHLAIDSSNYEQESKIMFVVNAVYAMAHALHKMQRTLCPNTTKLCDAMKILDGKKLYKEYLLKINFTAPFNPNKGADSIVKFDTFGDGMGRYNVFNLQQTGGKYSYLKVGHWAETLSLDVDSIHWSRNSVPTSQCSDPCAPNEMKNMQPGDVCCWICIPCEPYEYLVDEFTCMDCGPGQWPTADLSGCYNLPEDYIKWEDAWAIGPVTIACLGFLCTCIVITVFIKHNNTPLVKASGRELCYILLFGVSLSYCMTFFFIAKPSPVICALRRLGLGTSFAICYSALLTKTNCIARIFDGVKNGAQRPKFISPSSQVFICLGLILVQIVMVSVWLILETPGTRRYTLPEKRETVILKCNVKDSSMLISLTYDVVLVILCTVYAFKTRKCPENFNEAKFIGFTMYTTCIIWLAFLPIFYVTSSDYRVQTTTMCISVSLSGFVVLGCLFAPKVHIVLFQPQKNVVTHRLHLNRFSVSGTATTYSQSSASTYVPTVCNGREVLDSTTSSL

As for `Cc1c(OCCOCCOc2ccc(C(=O)CC(C)(C)C)c(O)c2C)cccc1C(=O)O` [Example 23, 3-(2-{2-[4-(3,3-Dimethylbutanoyl)-3-hydroxy-2-methylphenoxy]ethoxy}ethoxy)-2-methylbenzoic acid], the EC50 in assay [1] amounted to 491 nM; in assay [2], 45 nM; in assay [3], 91 nM; in assay [4], 327 nM.
For the compound `COc1ccc(-c2cnc(COc3ccc(C(=O)CC(C)(C)C)c(O)c3C)cn2)cc1C(=O)O` [compound 128, 5-(5-((4-(3,3-Dimethylbutanoyl)-3-hydroxy-2-methylphenoxy)methyl)pyrazin-2-yl)-2-methoxybenzoic acid], the EC50 in assay [1] was determined as 104 nM; in assay [2], 297 nM; in assay [3] it was 430 nM; in assay [4], 148 nM.
On to `CCCC(=O)c1ccc(OCc2cnc(-c3cccc(C(=O)O)c3OC)cn2)c(C)c1O` [compound 103, 3-{5-[(4-Butanoyl-3-hydroxy-2-methylphenoxy)methyl]pyrazin-2-yl}-2-methoxybenzoic acid], for which the half-maximal effective concentration (EC50) is 481 nM in assay [1], 54 nM in assay [2], 198 nM in assay [3] and 375 nM in assay [4].
The corresponding values for `COc1ccc(C(=O)O)cc1OCCNCCOc1ccc(C(=O)CC(C)(C)C)c(O)c1C` [Example 26, 3-[2-({2-[4-(3,3-Dimethylbutanoyl)-3-hydroxy-2-methylphenoxy]ethyl}amino)ethoxy]-4-methoxybenzoic acid] are 4090 nM, 156 nM, 2160 nM and 1620 nM.
The corresponding values for `[2H]C([2H])(CCCC([2H])([2H])Oc1ccc(C(=O)CCC)c(O)c1C)Oc1ccc(C(=O)O)cc1OC` [Example 51, 4-((5-(4-Butyryl-3-hydroxy-2-methylphenoxy)pentyl-1,1,5,5-d4)oxy)-3-methoxybenzoic acid] are 2380 nM, 9 nM, 22 nM and more than 30000 nM.
The corresponding values for `Cc1c(OCC#CCOc2ccc(C(=O)CC(C)(C)C)c(O)c2C)cccc1C(=O)O` [Example 22, 3-{4-[4-(3,3-Dimethylbutanoyl)-3-hydroxy-2-methylphenoxy]but-2-ynyloxy}-2-methylbenzoic acid] are 20 nM, 4 nM, 16 nM and 39 nM.
For `CCCC(=O)c1ccc(OCc2nc(-c3cccc(C(=O)O)c3)no2)c(C)c1O` [compound 135, 3-(5-((4-Butyryl-3-hydroxy-2-methylphenoxy)methyl)-1,2,4-oxadiazol-3-yl)benzoic acid], the EC50 was 660 nM in assay [1], 133 nM in assay [2], 106 nM in assay [3] and 748 nM in assay [4].
Consider `CCCC(=O)c1ccc(OCCCCOc2ccc(C(=O)O)c(Cl)c2)c(C)c1O` [compound 101, 4-[4-(4-Butanoyl-3-hydroxy-2-methylphenoxy)butoxy]-2-chlorobenzoic acid], for which the EC50 is more than 30000 nM in assay [1], 16 nM in assay [2], 33 nM in assay [3] and more than 30000 nM in assay [4].
Consider `COc1ccc(C(=O)NC2CC2)cc1-c1cnc(COc2ccc(C(=O)CC(C)(C)C)c(O)c2C)cn1` [compound 127, N-Cyclopropyl-3-(5-((4-(3,3-dimethylbutanoyl)-3-hydroxy-2-methylphenoxy)methyl)pyrazin-2-yl)-4-methoxybenzamide], for which the EC50 in assay [1] turned out to be 134 nM; in assay [2], 189 nM; in assay [3], 373 nM; in assay [4], 140 nM.
For `COC(=O)N(CCOc1cc(C(=O)O)ccc1OC)CCOc1ccc(C(=O)CC(C)(C)C)c(O)c1C` [Example 24, 3-[2-(N-{2-[4-(3,3-Dimethylbutanoyl)-3-hydroxy-2-methylphenoxy]ethyl}methoxycarbonylamino)ethoxy]-4-methoxybenzoic acid], the EC50 was 649 nM in assay [1], 82 nM in assay [2], 176 nM in assay [3] and 462 nM in assay [4].
The corresponding values for `Cc1c(OCCCCCOc2ccc(C(=O)O)c(Cl)c2)ccc(C(=O)CC(C)C)c1O` [Example 46, 2-Chloro-4-{5-[3-hydroxy-2-methyl-4-(3-methylbutanoyl)phenoxy]pentyloxy}benzoic acid] are 427 nM, 12 nM, 39 nM and 414 nM.
The like results for `COc1ccc(C(=O)O)cc1OC/C=C/COc1ccc(C(=O)CC(C)(C)C)c(O)c1C` [Example 4, (E)-3-((4-(4-(3,3-Dimethylbutanoyl)-3-hydroxy-2-methylphenoxy)but-2-en-1-yl)oxy)-4-methoxybenzoic acid] were, in that order, 47 nM, 56 nM, 67 nM and 61 nM.
The like results for `[2H]C([2H])(CCCC([2H])([2H])Oc1ccc(C(=O)CCC)c(O)c1C)Oc1cccc(C(=O)O)c1C` [Example 35] were, in that order, more than 10000 nM, 66 nM, 174 nM and more than 10000 nM.
Regarding `COc1ccc(C(=O)O)cc1C#CCCCOc1ccc(C(=O)CC(C)(C)C)c(O)c1C` [Example 2, 3-(5-(4-(3,3-Dimethylbutanoyl)-3-hydroxy-2-methylphenoxy)pent-1-yn-1-yl)-4-methoxybenzoic acid], the EC50 in assay [1] turned out to be 91 nM; in assay [2] it was 144 nM; in assay [3], 456 nM; in assay [4], 79 nM.
The corresponding values for `COc1c(C(=O)O)cccc1-c1ccc(COc2ccc(C(=O)CC(C)(C)C)c(O)c2C)cc1` [compound 104, 3-(4-{[4-(3,3-Dimethylbutanoyl)-3-hydroxy-2-methylphenoxy]methyl}phenyl)-2-methoxybenzoic acid] are 69 nM, 190 nM, 303 nM and 222 nM.
Turning to `Cc1c(C(=O)O)cccc1-c1cccc(COc2ccc(C(=O)CC(C)(C)C)c(O)c2C)c1` [compound 160, 3′-((4-(3,3-Dimethylbutanoyl)-3-hydroxy-2-methylphenoxy)methyl)-2-methyl-[1,1′-biphenyl]-3-carboxylic acid], the EC50 in assay [1] is 855 nM; in assay [2], 203 nM; in assay [3], 92 nM; in assay [4], 1480 nM.
As to `Cc1c(OCc2cccc(-c3cccc(C(=O)NC#N)c3)c2)ccc(C(=O)CC(C)(C)C)c1O` [compound 162, N-Cyano-3′-((4-(3,3-dimethylbutanoyl)-3-hydroxy-2-methylphenoxy)methyl)-[1,1′-biphenyl]-3-carboxamide], the EC50 in assay [1] turned out to be 145 nM; in assay [2], 234 nM; in assay [3] it was 166 nM; in assay [4], 593 nM.
The corresponding values for `COc1ccc(C(=O)O)cc1OCCC(C)(C)CCOc1ccc(C(=O)CC(C)(C)C)c(O)c1C` [Example 29, 3-{5-[4-(3,3-Dimethylbutanoyl)-3-hydroxy-2-methylphenoxy]-3,3-dimethylpentyloxy}-4-methoxybenzoic acid] are 1030 nM, 147 nM, 215 nM and 634 nM.
Take `Cc1c(OCCCCSc2cccc(C(=O)O)c2)ccc(C(=O)CC(C)C)c1O` [compound 81, 3-((4-(3-Hydroxy-2-methyl-4-(3-methylbutanoyl)phenoxy)butyl)thio)benzoic acid]: the EC50 in assay [1] turned out to be 1490 nM; in assay [2] it was 163 nM; in assay [3], 326 nM; in assay [4], 966 nM.
The like results for `COc1ccc(C(=O)O)cc1-c1cnc(COc2ccc(C(=O)CC(C)(C)C)c(O)c2C)cn1` [compound 116, 3-(5-((4-(3,3-Dimethylbutanoyl)-3-hydroxy-2-methylphenoxy)methyl)pyrazin-2-yl)-4-methoxybenzoic acid] were, in that order, 28 nM, 234 nM, 117 nM and 213 nM.
The corresponding values for `COc1ccc(C(=O)O)cc1OCCCCOc1ccc(C(=O)c2ccccc2)c(O)c1C` [compound 59, 3-(4-(4-Benzoyl-3-hydroxy-2-methylphenoxy)butoxy)-4-methoxybenzoic acid] are 222 nM, 325 nM, 182 nM and 408 nM.
`Cc1c(OCCCCCOc2ccc(C(=O)CC(C)(C)C)c(O)c2C)cccc1C(=O)O` [Example 17, 3-{5-[4-(3,3-Dimethylbutanoyl)-3-hydroxy-2-methylphenoxy]pentyloxy}-2-methylbenzoic acid]: the EC50 turned out to be 1520 nM in assay [1], 153 nM in assay [2], 355 nM in assay [3] and 768 nM in assay [4].
The like results for `COc1ccc(C(=O)O)cc1OCCCCOc1ccc(C(=O)C2CC2)c(O)c1C` [compound 60, 3-(4-(4-(Cyclopropanecarbonyl)-3-hydroxy-2-methylphenoxy)butoxy)-4-methoxybenzoic acid] were, in that order, more than 10000 nM, 60 nM, 117 nM and 598 nM.
`CCCC(=O)c1ccc(OCCOCCNc2cccc(C(=O)O)c2)c(C)c1O` [Example 9, 3-({2-[2-(4-Butanoyl-3-hydroxy-2-methylphenoxy)ethoxy]ethyl}amino)benzoic acid]: the EC50 in assay [1] was more than 10000 nM; in assay [2], 50 nM; in assay [3], 73 nM; in assay [4] it was more than 10000 nM.
